Read-outs that look alike come from different tables or passages of the source.
Columns and labels:
blowfly Lucilia caesar [1] = details: L. caesar, 1 h post injection; cited from earlier work
Procedure: Table 2 Neuroactivity of ant venom peptides on blowfly species (Lucilia spp.) ranked by PD50 values 1 h post injection. | column: PD50 [1 h] *

[2] = cited from earlier work
Procedure: Table 2 Neuroactivity of ant venom peptides on blowfly species (Lucilia spp.) ranked by PD50 values 1 h post injection. | column: Cytotoxicity

D. melanogaster = assay: Ingestion assay on Drosophila; type: in vivo; details: fed at high doses in 50% sucrose (Figure S2)
Procedure: (§1) We used the same protocol used in Guo et al. for the ingestion assays with flies (L. caesar and D. melanogaster). Briefly, flies were placed in 2 mL microcentrifuge tubes right after hatching and were individually fed with 3 µL of 50% w/v sucrose solution (negative control) or sucrose solution containing the toxin. They were then kept at 25 °C. Mortality was recorded at 1, 2, 4, 24, 48, and 72 h after exposure to the tested compound. The surviving flies received 3 µL of 50% w/v sucrose solution without peptide each day until the end of the experiment. For each test, ten flies were used per treatment and each of them was replicated three times.

[3] = test system: aphids (Acyrthosiphon pisum); assay: Aphid intra-abdominal injection assay; type: in vivo; details: A. pisum
Procedure: (§2) In this study, we screened the neurotoxic activity of U11 when injected into a panel of beneficial and pest insects such as honeybees, blowflies, and aphids. Blowfly is a dipteran model commonly used to evaluate the insecticidal potency of venom peptides. Blowfly maggots (Lucilia caesar) were bought from a fisheries shop (Euroloisir81, Lescure-d’Albigeois, France) and were kept at 25 °C until hatching. Flies 1–4 days post hatching were used for the injection assays. Honeybee (Apis mellifera) is a model of choice to assess the impact of a toxin against beneficial insects such as pollinators. The honeybee colonies used in this study belong to the Buckfast breed and were maintained at the University Champollion campus in Albi. Adult foraging honeybees were individually isolated in plastic vials and immediately injected. Assays on blowflies and honeybees were conducted by lateral intrathoracic injection of peptides dissolved in ultra-pure water at several concentrations (from 0.005 to 0.52 mM for L. caesar and from 0.002 to 1 mM for A. mellifera) by using a 1.0 mL Hamilton Syringe (1000 Series Gastight, Hamilton Company, Reno, NV, USA) with a fixed 25 gauge needle attached to an Arnold hand microapplicator (Burkard Manufacturing Co., Ltd., Rickmansworth, UK). Each fly/bee received 1 µL of peptide solution and was individually housed in a 2 mL tube with 3 µL of 5% glucose solution. Paralytic activity was monitored at 1 h and 24 h after injection while lethality was monitored only at 24 h. […] Ten flies/honeybees were used for each toxicity experiment and for the appropriate control (ultrapure water solution), and the experiment was repeated three times for each dose. Dose–response data were analyzed as detailed by Touchard et al.. The pea aphids A. pisum used in this study were obtained from a long-established parthenogenetic clone (LL01). […] Aphids were monitored daily for 7 days after injection and their survival and behavior regularly checked, following the protocol developed by Ribeiro Lopes et al.. […]

A. pisum = assay: Feeding experiment on aphids; type: in vivo, Acyrthosiphon pisum; details: artificial diet with 500 μg/mL and 1 mg/mL, seven days
Procedure: For the feeding experiments on aphids, one-day-old aphids (corresponding to the first-instar nymphs N1) were placed for seven days in feeding chambers on 48 μL of a nutritive artificial diet specifically developed for A. pisum feeding, and development was completed with or without the peptide U11. The diets were changed after three days to avoid contamination. Ten N1 were deposited in the feeding chamber and three replicates were performed for each bioassay. Aphids’ mortality was assessed every day and compared between the different diets using a GLM linear regression model after observation of the residuals with a significance level of 5% on the R Studio software. Survival of aphids on two diets, completed, respectively, with U11 at 500 μg/mL and 1 mg/mL, was followed during seven days.

[4] = test system: honeybees (Apis mellifera); assay: Honeybee paralytic assay, intrathoracic injection; type: in vivo; details: A. mellifera, n = 3
Procedure: In this study, we screened the neurotoxic activity of U11 when injected into a panel of beneficial and pest insects such as honeybees, blowflies, and aphids. Blowfly is a dipteran model commonly used to evaluate the insecticidal potency of venom peptides. Blowfly maggots (Lucilia caesar) were bought from a fisheries shop (Euroloisir81, Lescure-d’Albigeois, France) and were kept at 25 °C until hatching. Flies 1–4 days post hatching were used for the injection assays. Honeybee (Apis mellifera) is a model of choice to assess the impact of a toxin against beneficial insects such as pollinators. The honeybee colonies used in this study belong to the Buckfast breed and were maintained at the University Champollion campus in Albi. Adult foraging honeybees were individually isolated in plastic vials and immediately injected. […] Paralytic activity was monitored at 1 h and 24 h after injection while lethality was monitored only at 24 h. […] Dose–response data were analyzed as detailed by Touchard et al.. […] Aphids were monitored daily for 7 days after injection and their survival and behavior regularly checked, following the protocol developed by Ribeiro Lopes et al.. […]

S2 cells [5] = assay: Intracellular Ca2+ mobilization, Fluo-4/AM probe; type: cell-based, Drosophila; details: 10 µM, 1 h preincubation, thapsigargin 2 µM then CaCl2 1.8 mM
Procedure: (§3) The embryonic S2 Drosophila cell line (Thermofisher, Waltham, MA, USA) was maintained in Schneider’s insect medium (Sigma-Aldrich, Saint Louis, MO, USA) complemented with 10% heat-inactivated fetal bovine serum (FBS) (Sigma-Aldrich) and 1% Penicillin/Streptomycin (Sigma-Aldrich) at 25 °C without CO2 on TC-treated support (Corning®, Glendale, AZ, USA). The FBS was heat inactivated at 60 °C for 45 min. The cells were passaged every two days at about 90% confluence.
The [Ca^2+]i mobilization was measured with the Fluo-4/AM probe using the imaging reader Cytation 1 (BioTek, Agilent). Then, 6 × 10^5 S2 cells/mL were plated on glass-bottom Petri dishes and allowed to adhere for 24 h before experiments. Cells are incubated with 2 µM of Fluo-4/AM in cell culture medium with 2.5 mM probenecid for 1 h at 25 °C with 10 µM of U11 peptide. Then, cells were rinsed twice in Ca^2+-free buffer containing (in mM) 120 NaCl, 5 KCl, 4 MgCl2, 32.2 Sucrose, 10 HEPES, 0.1 EGTA, 2.5 probenecide (pH 7.2), incubated in Ca^2+-free buffer, and processed for measurement of cytoplasmic Ca^2+ concentration. […] Cell fluorescence was analyzed with CALIMA [59] […] Changes in the Ca^2+ cytosolic concentration were calculated from changes of fluorescence relative to time 0 (F = Ft/Ft0 (fluorescence at time = t/time = 0)).

S2 cells [6] = assay: Membrane potential recorded by DiBAC4(3); type: cell-based, Drosophila; details: 10 µM, KCl 50 mM
Procedure: as §3
Variations of membrane potential were assessed using the fluorescent dye bis-(1,3-dibutybarbituric acid) (DiBAC4(3)) (Thermofisher) using a IX73 fluorescence microscope (Olympus, Japan). Then, 6 × 10^5 S2 cells were plated on 0.01% Poly-L-Lysine (Sigma-Aldrich) coated glass-bottom Petri dishes and allowed to adhere for 24 h before experiments. […] Baseline was recorded for 1 min before addition of KCl (50 Mm final) to achieve membrane depolarization. The results are presented as transformed data to obtain the relative fluorescence to the time of addition of the stimulus, according to the equation: Fx = Ft/F0, where Ft represents the fluorescent value at a specific time point and F0 represents the mean basal fluorescent value. To compare the different conditions, areas under the curve (AUC) after KCl addition were calculated (between 60 and 300 s).

[7] = test system: S2 Drosophila embryonic cell line; assay: CCK-8 cytotoxicity assay; type: cell-based
Procedure: as §3
(§4) The CCK-8 (BosterBio, Pleasanton, CA, USA) and LDH (Dojindo, Rockville, MD, USA) assay kits were used to assess the cellular viability and mortality, with densities of 2 × 10^5 cells/mL and 6 × 10^5 cells/mL, respectively. Briefly, 100 µL of S2 cells at the appropriate densities were seeded in 96-well TC-treated plates and incubated for 24 h at 25 °C. […] Lysis Buffer, Triton 0.1%, and culture medium were used for controls. Viability and mortality cell assays were realized separately and in triplicates according to manufacturer’s instructions. The absorbances were measured using a BioTek Cytation 1 microplate reader (Agilent, Santa Clara, CA, USA) (i.e., 450 nm and 490 nm for CCK-8 and LDH assays, respectively). The percentages of living or dead cells were then calculated according to manufacturer’s recommendations.

blowfly Lucilia caesar [8] = assay: Blowfly paralytic assay, intrathoracic injection; type: in vivo; details: L. caesar; for PD50 [1 h]: 1 h post injection, mean ± SEM, n = 3, ten flies per dose
Procedure: as §2, with “(LL01). Aphids were kept on young broad bean plants (Vicia faba, L. cv. Aquadulce) at 21 °C with a photoperiod of 16 h light 8 h dark, allowing us to maintain them as strictly parthenogenetic matrilines. To produce synchronized apterous nymphs, winged adults were allowed to reproduce on seedlings for 24 h. The resulting synchronized nymphs were reared for 9 days on plants before the beginning of the experiments (peptide injection or feeding). For the injection experiment, we used four groups of synchronized A9 aphids (30 per group): (i) non-injected aphids, (ii) aphids injected with sterilized ultra-pure water (injection control), (iii) aphids injected with PA1b inactivated peptide (non-toxic peptide injection control), and (iv) aphids injected with the U11 peptide.” for “(LL01).”

L. caesar = assay: Ingestion assay on blowflies; type: in vivo, Lucilia caesar
Procedure: as §1

Sitophilus oryzae = assay: Weevil toxicity test by ingestion; type: in vivo; details: S. oryzae, 800 μg/g of feed, two weeks
Procedure: S. oryzae toxicity tests were performed with the WAA42 strain as described previously. Briefly, the insects used for the bioassays were adults 2 to 3 weeks of age collected in one week experimental cohorts and placed in batches of 30 individuals on feed pellets containing the synthetic U11 tested in a whole grain-based diet. The tested concentration of the U11 was 800 μg/g of the feed. Bioactivity was assessed by daily insect survival during the first two weeks of contact with the test diet (27.5 °C, 70% room humidity) and by standard survival analysis.

[9] = test system: S2 Drosophila embryonic cell line; assay: LDH cytotoxicity assay; type: cell-based; details: S2 cells, 5 and 50 µM, 1 h and 24 h of incubation
Procedure: as §3, §4

A. mellifera = assay: Ingestion assay on honeybees; type: in vivo, Apis mellifera; details: force fed 5 µL sucrose solution with 8 mg/mL (110 nmol/g bee)
Procedure: The ingestion assays on honeybees were conducted by placing bees in 850 mL plastic storage boxes with 2 mL microcentrifuge tubes filled with 50% w/v sucrose solution and previously drilled for bee access. The boxes were kept at 25 °C in the dark and the bees were allowed to feed ad libitum on the sucrose solution. For each test, ten bees were used per treatment, and each of them was replicated three times. Lethality was recorded at 1, 2, 4, 24, and 48 h after exposure to U11 peptide.
For oral toxicity assays, insects were starved for 2 h prior testing. Bees were individually force fed with 5 µL of 50% w/v sucrose solution (negative control), or sucrose solution containing the toxin (8 mg/mL–110 nmol/g bee).

bicarinalin [M-Tb1a]
PD50 [1 h] (blowfly Lucilia caesar [1]): 12.0 ± 1.0 nmol/g
Cytotoxicity [2]: Yes

U11-MYRTX-Tb1a
toxicity by ingestion (D. melanogaster): active by ingestion
effect on aphid fitness ([3]; injection 3.4 nmol. g^−1, monitored over 7 days (Figure S1)): weak effect
aphids affected 24 h post injection ([3]; intra-abdominal injection, 3.4 nmol. g^−1 (46 nL of 0.25 mM), 24 h): 6.6%
paralytic effect on aphids by injection ([3]; intra-abdominal injection, 3.4 nmol. g^−1, 24 h): weak paralytic effect
toxicity by ingestion (A. pisum): unaffected
PD50 1 h post injection ([4]; 1 h post injection): 1.36 ± 0.08 nmol/g
PD50 24 h post injection ([4]; 24 h post injection): 1.11 ± 0.09 nmol/g
calcium mobilization (Tg response and calcium influx) (S2 cells [5]): No effect
depolarization-induced increase in fluorescence intensity, less than in the control condition (S2 cells [6]; 30 min, DiBAC4(3), NMDG buffer): 33%
AUC of relative fluorescence after KCl application (S2 cells [6]; 60-300 s, mean ± SEM of n = 220 cells (n = 3), control 464 ± 35): 312 ± 23
cytotoxicity, CCK-8 assay ([7]; S2 cells, 5 and 50 µM, 1 h and 24 h of incubation): not cytotoxic
Cytotoxicity ([7]; Table 2, this study: CCK-8 and LDH assays on S2 cells): No
paralysis of flies 1 h after injection (screen) (blowfly Lucilia caesar [8]; intrathoracic injection of one high dose per peptide (Table 1: U8 54, U10 28, U11 27, U13 45 nmol. g^−1), 1 h, ten flies per replicate, three replicates): paralysis of all flies
PD50 [1 h] (blowfly Lucilia caesar [8]; intrathoracic injection): 1.78 ± 0.12 nmol/g
PD50 [1 h] (blowfly Lucilia caesar [8]; intrathoracic injection, listed as U11-Tb1a): 1.8 ± 0.1 nmol/g
PD50 24 h post injection (blowfly Lucilia caesar [8]; intrathoracic injection, 24 h post injection, n = 3): 2.67 ± 0.13 nmol/g
toxicity by ingestion (L. caesar; fed at high doses in 50% sucrose (Figure S2)): active by ingestion
blowflies affected 24 h post ingestion (L. caesar; ingestion, 8 mg/mL (350 nmol. g^−1), 24 h): 60%
toxicity by ingestion (Sitophilus oryzae): unaffected
cytotoxicity, LDH assay [9]: not cytotoxic
toxicity by ingestion (A. mellifera): unaffected
